Positions of bridges follow the written chain, without caps; N, C: chain ends. No end group written: not given here.
Columns and labels:
IFN signaling pathway = IFN signaling pathway (SEAP) in Jurkart-Dual reporter cells, peptide pre-treatment then IFN-α; assay type: cell-based; conditions: peptide 1 hour, then IFN-α (104 EU/ml); 10 μM; 12 hours
Experimental: Therefore, we cannot confirm whether they were able to affect the activation pathway (FIGS. 6A, B, and C) in the same or better way than the negative control (rIL-10). In the assays shown in FIGS. 5 (A, B, and C) and 6 (A, B, and C), IFN expression was analyzed in Jurkart-Dual reporter cells. In the assays shown in FIGS. 5 A, B, and C, cells were treated with peptides for 1 hour followed by the addition of IFN-α (104 EU/ml). Secreted Embryonic Alkaline Phosphatase (SEAP) production was measured after 12 hours of treatment (FIG. 5A), 24 hours of treatment (FIG. 5B), and 48 hours of treatment (FIG. 5C). In the assays shown in FIGS. 6 A, B, and C, cells were treated with IFN-α (104 EU/ml) for 1 hour, and then peptides were added. SEAP production was measured after (D) 12 hours of treatment (E) 24 hours of treatment, and (F) 48 hours of treatment. IFN-α (104 EU/mL) was used as a positive control and rIL-10 (0.4 ng/mL) as a negative control. * P<0.05.

TLR4 signaling pathway [1] = assay: TLR4 signaling pathway (SEAP) in HEK cells, LPS pre-treatment then peptides; assay type: cell-based; conditions: LPS then peptide, 12 hours
Experimental: (§1) HEK cells were used to investigate the ability of the peptides to reduce activation of the TLR4 signaling pathway after 12 hours of treatment.
(§2) In the assay shown in FIG. 7A, the cells were treated with peptides for 1 hour, then LPS (100 ng/ml) was added. SEAP production was measured after 12 hours of treatment. In the assay shown in FIG. 7B, the cells were treated with LPS (100 ng/ml) for 1 hour, then the peptides were added. SEAP production was measured after 12 hours of treatment. LPS (100 ng/mL) was used as positive control and IL-10 (0.4 ng/mL) as negative control. * P<0.05; ** P<0.005; *** P<0.0005.

NFκB = assay: NFkB expression in Jurkart-Dual reporter cells, TNF-α pre-treatment then peptides; assay type: cell-based; conditions: for NFκB signaling: TNF-α then peptide
Experimental: Then another assay was performed in which the cells were pretreated with TNF-α and the peptides were added later. […] In the assays shown in FIGS. 4 A, B, and C the analysis of NFkB expression was performed in Jurkart-Dual reporter cells. Cells were treated with TNF-α (200 ng/ml) for 1 hour and the peptides were added. Luciferase was measured after 12 hours of treatment (FIG. 4A), 24 hours of treatment (FIG. 4B), and 48 hours of treatment (FIG. 4C). TNF-α (200 ng/mL) was used as a positive control and rIL-10 (Recombinant Interleukin-10) (0.4 ng/mL) as a negative control. * P<0.05; ** P<0.005; *** P<0.0005.

TLR4 signaling pathway [2] = assay: TLR4 signaling pathway (SEAP) in HEK cells, peptide pre-treatment then LPS; assay type: cell-based; conditions: peptide then LPS; 0.005 μM; 12 hours
Experimental: as §1, §2

[3] = Dynamic Light Scattering (DLS), aggregation behavior in solution; assay type: physicochemical
Experimental: The aggregation behavior of peptides Pep 1, Pep 2, Pep 3, and Pep 4 in solution was determined by Dynamic Light Scattering (DLS), as shown in FIG. 1E. All synthetic peptides were approximately 100% monomeric in solution. The measured hydrodynamic radius of the peptides was similar for Pep 1 (0.82 nm), Pep 2 ([…]), Pep 3 (0.79 nm), and Pep 4 (0.86 nm).

[4] = system: mouse basophilic leukemia cells transfected with the human FcεRI IgE receptor (hRBL); assay: IgE-mediated release of β-hexosaminidase (basophil degranulation) in hRBL cells; assay type: cell-based; conditions: 1 μM; versus cells treated with Bet v1 alone; serum from seven birch pollen-allergic donors
Experimental: The effect of Pep 1 on IgE-mediated release was studied using mouse basophilic leukemia cells transfected with the human FcεRI IgE receptor (hRBL). The hRBL cells were sensitized with serum from seven patients allergic to birch pollen. The cells were stimulated with the antigen and its interaction with immobilized IgEs resulting in the release of β-hexosaminidase.
When cells were treated with a composition containing Pep 1 to 1 μM (FIG. 10A) or rIL10 (FIG. 10B), the amount of Bet v 1 required to induce the same amount of degranulation was higher than for cells treated with Bet v1 alone (P<0.05). Amount of rBet v 1 (ng/mL) required to induce half the release of β-hexosaminidase using serum from seven birch pollen-allergic donors after treatment with Pep 1 (A) (P<0.05) and rIL10 (B) * P<0.05.

[5] = system: T cells from allergic patients; assay: Proliferation of T cells from allergic patients; assay type: cell-based; conditions: 10 μM; 24 hours; Bet v 1 positive control
Experimental: To confirm the ability of the synthesized peptides to decrease dendritic cell activation, a composition containing Pep 1 at a concentration of 10 μM was chosen and the proliferation of T cells from allergic patients was measured after 24 hours of treatment. […] Cells were treated with Bet v 1 as a positive control, and an irrelevant peptide (IR) was used as a negative control.

cell line J774 = assay: Cytokines production after treatment of cell line J774; assay type: cell-based; set-up: levels of MCP-1: dose or concentration left out as unconfirmed
Experimental: After 24 hours of treatment, the produced amounts of IL-6, MCP-1, and TNF-α were measured. […] In contrast, when cells were treated with a composition of Pep 1 followed by incubation with LPS (1 mg/ml) for 24 hours to induce an inflammatory response, the peptide was able to decrease the production of IL-6, MCP-1, and TNF-α.
Each decrease was significant compared to cells treated with LPS alone (positive control). * P<0.05; ** P<0.005; *** P<0.0005

Substance: Pep 1: synthetic peptide with affinity to the Interleukin-10 receptor, SEQ ID No 01, with disulfide bridges (HACSAVIKSSCGGGS; disulfide 3-11 (inferred))
- activation of the IFN signaling pathway (IFN signaling pathway): activation of the pathway was reduced
- activation of the TLR4 pathway (TLR4 signaling pathway [1]; 0.001 μM): activation of the TLR4 pathway was more significantly reduced
- activation of the TLR4 pathway (TLR4 signaling pathway [1]; 0.005 μM): activation of the TLR4 pathway was more significantly reduced
- activation of the TLR4 pathway (TLR4 signaling pathway [1]; 0.01 μM): activation of the TLR4 pathway was more significantly reduced
- activation of the TLR4 pathway (TLR4 signaling pathway [1]; 0.05 μM): activation of the TLR4 pathway was more significantly reduced
- activation of the TLR4 pathway (TLR4 signaling pathway [1]; 0.1 μM): activation of the TLR4 pathway was more significantly reduced
- NFκB signaling (NFκB; 0.0001 μM, 24 hours): less activation of the analyzed signaling pathway
- NFκB signaling (NFκB; 0.001 μM, 12 hours): decreased the activation of the analyzed pathway
- NFκB signaling (NFκB; 0.001 μM, 24 hours): less activation of the analyzed signaling pathway
- NFκB signaling (NFκB; 0.001 μM, 48 hours): reducing NFκB signaling
- NFκB signaling (NFκB; 0.005 μM, 24 hours): less activation of the analyzed signaling pathway
- NFκB signaling (NFκB; 0.05 μM, 12 hours): decreased the activation of the analyzed pathway
- NFκB signaling (NFκB; 0.1 μM, 12 hours): decreased the activation of the analyzed pathway
- NFκB signaling (NFκB; 0.1 μM, 24 hours): less activation of the analyzed signaling pathway
- NFκB signaling (NFκB; 0.5 μM, 12 hours): decreased the activation of the analyzed pathway
- NFκB signaling (NFκB; 1 μM, 12 hours): decreased the activation of the analyzed pathway
- NFκB signaling (NFκB; 1 μM, 24 hours): less activation of the analyzed signaling pathway
- NFκB signaling (NFκB; 5 μM, 12 hours): decreased the activation of the analyzed pathway
- NFκB signaling (NFκB; 10 μM, 12 hours): decreased the activation of the analyzed pathway
- NFκB signaling (NFκB; 10 μM, 24 hours): less activation of the analyzed signaling pathway
- NFκB signaling (NFκB; 100 μM, 24 hours): less activation of the analyzed signaling pathway
- NFκB activation (NFκB; cells pretreated with TNF-α, all concentrations tested, 12 and 24 hours): decreased NFκB activation
- TLR4 pathway activation (TLR4 signaling pathway [2]): significantly reduced pathway activation
- hydrodynamic radius [3]: 0.82 nm
- amount of Bet v 1 required to induce the same amount of degranulation [4]: higher
- T cell proliferation [5]: decreased T cell proliferation
- IL-10, IFN-γ, or IL12p70 production (cell line J774; 24 hours of treatment (data not shown)): No interference
- levels of IL-6 (cell line J774; peptide then LPS 24 hours, 1 μM and 10 μM printed beside IL-6, versus LPS alone): significantly reduced
- levels of TNF-α (cell line J774; peptide then LPS 24 hours, 1 μM, 10 μM and 100 μM, versus LPS alone): significantly reduced
- levels of MCP-1 (cell line J774; peptide then LPS 24 hours, versus LPS alone): significantly reduced
- cytokine response to peptide alone (cell line J774; without LPS stimulation (data not shown)): unable to elicit any response
